Some test systems named below: 786-0; A498; CCRF-CEM; EKVX; Hs-578T; IGROV-1; K562; LOX IMVI; OVCAR-4; OVCAR-8; RXF 393; SK-MEL-28; SK-MEL-5; SK-OV-3; SNB-19; TK-10; U-251; UACC-257; UACC-62; UO-31.
Experiment in all cases: NCI anticancer screen, dose series, 48 h

Structures are written as SMILES.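 Exposure lasted 48 hours, with cells grown in 96-well plates and compounds tested at five concentrations. GI50 is the concentration that inhibits growth by half.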 The source made the active and inactive calls. Cut-off read from the data, not from the text of the source: active = GI50 up to about 1.1 µM and inactive = higher.

Results on eight molecules are retold here after ChEMBL document CHEMBL1201862, “PubChem BioAssay data set” (2004).

On to `CCN(CC)CCC1CCCCN1CC(=O)N1c2ccccc2NC(=O)CC1C` (stereo not given), for which the GI50 with 786-0, in the assay on A498, with CCRF-CEM, with EKVX, in the assay on Hs-578T and in the assay with IGROV-1 was > 100 µM (inactive) in each case. Besides, the GI50 with K562, in the assay on LOX IMVI, in the assay with OVCAR-4, in the assay on OVCAR-8, with RXF 393 and with SK-MEL-28 was > 100 µM (inactive) each time. Further, the GI50 in the assay with SK-MEL-5, with SK-OV-3, in the assay with SNB-19, with TK-10, with U-251 and in the assay on UACC-257 was > 100 µM (inactive) in each case. The GI50 with UACC-62 and in the assay with UO-31 was > 100 µM (inactive) in each case.
In the case of `CC(C)(Cl)C(Cl)CC/C(CBr)=C(\Cl)CCl` (stereo not given), the GI50 with 786-0 is 2.55 µM (inactive); in the assay on A498 it was 19.4 µM (inactive); with CCRF-CEM, 0.294 µM (active); in the assay with EKVX, 17.7 µM (inactive); in the assay on Hs-578T it was 5.32 µM (inactive); in the assay on IGROV-1 it was 2.04 µM (inactive). Further, the GI50 in the assay on K562 was 0.678 µM (active); in the assay with LOX IMVI, 0.406 µM (active); with OVCAR-4, 2.79 µM (inactive); in the assay on OVCAR-8, 3.17 µM (inactive); in the assay with RXF 393, 10.6 µM (inactive); with SK-MEL-28 it was 2.92 µM (inactive). Moreover, the GI50 in the assay with SK-MEL-5 was 2.31 µM (inactive); in the assay with SK-OV-3, 6 µM (inactive); with SNB-19, 17.6 µM (inactive); in the assay with TK-10 it was 14.1 µM (inactive); with U-251, 4.24 µM (inactive); in the assay on UACC-257, 3.25 µM (inactive). The GI50 in the assay with UACC-62 is 1.67 µM (inactive); in the assay on UO-31, 6.53 µM (inactive).
In the case of `CC(C)c1cccc(C(C)C)c1NC(=O)/C(CC(=O)CC(c1ccccc1)c1c(O)c2ccccc2oc1=O)=N/O` (stereo not given), the GI50 in the assay with 786-0, in the assay with A498, in the assay with CCRF-CEM, in the assay on EKVX, with Hs-578T and with IGROV-1 was > 100 µM (inactive) throughout. Moreover, the GI50 in the assay on K562, in the assay with LOX IMVI, in the assay on OVCAR-4, in the assay with OVCAR-8, in the assay on RXF 393 and in the assay on SK-MEL-28 was > 100 µM (inactive) in each case. The GI50 in the assay with SK-MEL-5, in the assay on SK-OV-3, in the assay on SNB-19, in the assay with TK-10, in the assay with U-251 and in the assay with UACC-257 was > 100 µM (inactive) throughout. For the same molecule, the GI50 with UACC-62 is > 100 µM (inactive); in the assay with UO-31 it was > 95.9 µM (inactive).
As for `CC(C(=O)ON1C(=O)CCC1=O)c1ccc(C(=O)c2ccccc2)s1` (stereo not given), the GI50 with 786-0, with A498, in the assay on CCRF-CEM, in the assay with EKVX, with Hs-578T and in the assay with IGROV-1 was > 100 µM (inactive) throughout. Also, the GI50 in the assay with K562, in the assay on LOX IMVI, in the assay on OVCAR-4, with OVCAR-8, in the assay on RXF 393 and with SK-MEL-28 was > 100 µM (inactive) in each case. Besides, the GI50 in the assay with SK-MEL-5, in the assay with SK-OV-3, in the assay on SNB-19, with TK-10, with U-251 and with UACC-257 was > 100 µM (inactive) throughout. The GI50 with UACC-62 and in the assay with UO-31 was > 100 µM (inactive) in each case.
For `CCOC(=O)c1sc2[n+](c1C)C(=O)/C(=C/c1ccccc1Cl)S2`, the GI50 was 0.618 µM (active) in the assay with 786-0; 6.92 µM (inactive) in the assay with A498; 15.3 µM (inactive) in the assay on CCRF-CEM; 3.21 µM (inactive) with EKVX; 0.822 µM (active) with Hs-578T; 1.84 µM (inactive) in the assay on IGROV-1. The GI50 was 0.505 µM (active) in the assay with K562; 0.851 µM (active) in the assay on LOX IMVI; 33.3 µM (inactive) in the assay on OVCAR-4; 1.01 µM (active) in the assay on OVCAR-8; 15.3 µM (inactive) in the assay on RXF 393; 9.75 µM (inactive) in the assay with SK-MEL-28. The GI50 is 0.421 µM (active) in the assay on SK-MEL-5; 1.99 µM (inactive) with SK-OV-3; 0.579 µM (active) in the assay on SNB-19; 15.3 µM (inactive) in the assay with TK-10; 0.583 µM (active) in the assay on U-251; 4.83 µM (inactive) with UACC-257. For the same molecule, the GI50 in the assay with UACC-62 is 0.447 µM (active); in the assay with UO-31, 0.684 µM (active).
In the case of `CC1(C)OCC2OC(n3cnc4c(N)nc(Cl)nc43)C(OS(C)(=O)=O)C2O1` (stereo not given), the GI50 with 786-0, in the assay on A498, in the assay with CCRF-CEM, in the assay on EKVX, in the assay with Hs-578T and with IGROV-1 was > 100 µM (inactive) each time. Further, the GI50 with K562, in the assay on LOX IMVI, in the assay with OVCAR-4, in the assay with OVCAR-8, in the assay with RXF 393 and in the assay with SK-MEL-28 was > 100 µM (inactive) each time. The GI50 with SK-MEL-5, in the assay on SK-OV-3, in the assay with SNB-19, in the assay on TK-10, in the assay with U-251 and in the assay with UACC-257 was > 100 µM (inactive) throughout. In addition, the GI50 with UACC-62 and in the assay on UO-31 was > 100 µM (inactive) in each case.
As to `O=C1CCCCCC1CC(Sc1ccccc1)Sc1ccccc1` (stereo not given), the GI50 is > 100 µM (inactive) with 786-0; > 100 µM (inactive) in the assay with A498; 25.2 µM (inactive) in the assay on CCRF-CEM; > 100 µM (inactive) in the assay with EKVX; 96.2 µM (inactive) in the assay with Hs-578T; > 100 µM (inactive) in the assay with IGROV-1. Also, the GI50 is 46.7 µM (inactive) in the assay on K562; > 100 µM (inactive) in the assay with LOX IMVI; 96.4 µM (inactive) in the assay with OVCAR-4; > 100 µM (inactive) in the assay on OVCAR-8; > 100 µM (inactive) in the assay on RXF 393; > 100 µM (inactive) with SK-MEL-28. Moreover, the GI50 with SK-MEL-5 was 52.5 µM (inactive); in the assay on SK-OV-3 it was > 100 µM (inactive); with SNB-19 it was > 100 µM (inactive); in the assay with TK-10 it was > 100 µM (inactive); in the assay on U-251, > 100 µM (inactive); in the assay on UACC-257 it was 59.8 µM (inactive). Further, the GI50 was 81.8 µM (inactive) in the assay on UACC-62 and 88.5 µM (inactive) in the assay with UO-31.
`C#CCNC(CCCNC(=N)N)C(=O)O` (stereo not given): the GI50 in the assay with 786-0, with A498, in the assay on CCRF-CEM, in the assay with EKVX, in the assay with Hs-578T and with IGROV-1 was > 100 µM (inactive) each time. Besides, the GI50 in the assay with K562, in the assay on LOX IMVI, in the assay on OVCAR-4, with OVCAR-8, with RXF 393 and with SK-MEL-28 was > 100 µM (inactive) throughout. The GI50 in the assay with SK-MEL-5, in the assay on SK-OV-3, in the assay on SNB-19, in the assay with TK-10, in the assay with U-251 and in the assay with UACC-257 was > 100 µM (inactive) each time. Moreover, the GI50 in the assay with UACC-62 and in the assay with UO-31 was > 100 µM (inactive) in each case.
